Results taken from ChEMBL document CHEMBL1201862, “PubChem BioAssay data set” (2004).
The source made the active and inactive calls.

Key:
[1] = molecular target: T1, Corticotropin-releasing factor receptor 2/Corticotropin-releasing factor-binding protein (Homo sapiens, UniProt P24387+Q13324); assay: Dose Response confirmation of uHTS hits for small molecule antagonists of the CRF-binding protein and CRF-R2 receptor complex.; type: functional; details: read-out: IC50_Mean
T1 sequence (Q13324 whole entry): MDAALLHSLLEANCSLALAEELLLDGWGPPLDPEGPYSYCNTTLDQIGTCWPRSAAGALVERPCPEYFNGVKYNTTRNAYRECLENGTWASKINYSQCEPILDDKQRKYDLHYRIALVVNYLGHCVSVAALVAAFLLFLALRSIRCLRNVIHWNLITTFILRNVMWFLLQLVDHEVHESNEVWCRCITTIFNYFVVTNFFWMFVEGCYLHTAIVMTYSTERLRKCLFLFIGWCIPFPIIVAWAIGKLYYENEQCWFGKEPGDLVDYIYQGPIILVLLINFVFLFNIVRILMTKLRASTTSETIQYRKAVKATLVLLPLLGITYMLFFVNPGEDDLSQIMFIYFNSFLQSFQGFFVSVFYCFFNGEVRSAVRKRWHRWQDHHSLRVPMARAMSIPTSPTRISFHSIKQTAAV
T1 sequence (P24387 whole entry): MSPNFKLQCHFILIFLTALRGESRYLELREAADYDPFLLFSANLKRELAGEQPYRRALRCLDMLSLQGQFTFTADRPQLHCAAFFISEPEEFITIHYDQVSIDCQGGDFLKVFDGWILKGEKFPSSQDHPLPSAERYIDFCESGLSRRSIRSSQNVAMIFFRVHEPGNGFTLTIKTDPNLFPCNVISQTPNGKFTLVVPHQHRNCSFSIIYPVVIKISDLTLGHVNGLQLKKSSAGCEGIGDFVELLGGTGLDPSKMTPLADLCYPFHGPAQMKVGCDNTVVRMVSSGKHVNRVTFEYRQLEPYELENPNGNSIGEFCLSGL

[2] = molecular target: T1, Corticotropin-releasing factor receptor 2/Corticotropin-releasing factor-binding protein; assay: activators of CRF receptor 2 with binding protein – uHTS hits, confirmation (AID 602473); type: functional; details: read-out: EC50_Mean
[3] = CRF-BP/CRF-R2 complex antagonists, dose response, cell-based, uHTS hits, 384-well (AID 651639); type: functional, Homo sapiens; details: read-out: IC50_Mean
fMet-Leu-Phe receptor = fMet-Leu-Phe receptor (Homo sapiens, UniProt P21462); assay: FPR ligands, dose response (AID 519); type: functional
[4] = human group III sPLA2 inhibitors, dose response, biochemical, QFRET, IC50 (AID 743457);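 also: green fluorescence rise as the enzyme cleaves BODIPY PC-A2 in liposomes; potency for inhibition of the enzyme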
[5] = molecular target: Nuclear receptor subfamily 5 group A member 2 (Homo sapiens, UniProt O00482); type: functional, cell-based;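 also: HEK293T cells transfected with LRH-1 and a StAR promoter luciferase reporter; potency for inhibitors that lower LRH-1 driven reporter light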
Steroidogenic factor 1 = Steroidogenic factor 1 (Homo sapiens, UniProt Q13285); assay: Counterscreen for inverse agonists of the liver receptor homolog-1 (LRH-1; NR5A2): Luminescence-based cell-based high throughput dose response assay to identify inverse agonists of the Steroidogenic Factor 1 Nuclear Receptor (SF1; NR5A1).; type: functional
[6] = StAR promoter reporter inhibition counter-screen, dose response, counter-screen for LRH-1 inverse agonist project, cell-based, luminescence, luciferase reporter (AID 651969); type: functional
cells [7] = type: functional, cell-based
[8] = molecular target: T2, Trace amine-associated receptor 1 (Homo sapiens, UniProt Q96RJ0); assay: Fluorescence-based cell-based high throughput dose response assay to identify agonists of the human trace amine associated receptor 1 (TAAR1).; type: functional
T2 sequence (Q96RJ0 whole entry): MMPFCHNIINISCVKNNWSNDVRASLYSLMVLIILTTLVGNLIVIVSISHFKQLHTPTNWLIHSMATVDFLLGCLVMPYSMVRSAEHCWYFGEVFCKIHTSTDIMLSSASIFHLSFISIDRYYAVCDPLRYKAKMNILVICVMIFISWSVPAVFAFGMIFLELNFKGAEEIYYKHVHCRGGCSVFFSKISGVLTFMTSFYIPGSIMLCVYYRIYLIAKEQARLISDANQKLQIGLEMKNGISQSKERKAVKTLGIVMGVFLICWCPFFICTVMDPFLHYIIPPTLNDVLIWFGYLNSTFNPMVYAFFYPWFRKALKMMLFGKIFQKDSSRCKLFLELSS

[9] = molecular target: T2, Trace amine-associated receptor 1; assay: Counterscreen for agonists of the human trace amine associated receptor 1 (hTAAR1): Fluorescence-based cell-based high throughput dose response assay to identify hTAAR1 agonist that also desensitize TAAR1 receptor response.; type: functional
cells [10] = type: functional, cell-based; remark: listed apart in the source
[11] = molecular target: Mitogen-activated protein kinase 10 (Homo sapiens, UniProt P53779); assay: Dose response biochemical screening assay for inhibitors of c-Jun N-Terminal Kinase 3 (JNK3). [Related pubchem assays: 746 ]
Protein skinhead-1 = molecular target: T3, Protein skinhead-1 (Caenorhabditis elegans, UniProt P34707); type: functional
T3 sequence (P34707 whole entry): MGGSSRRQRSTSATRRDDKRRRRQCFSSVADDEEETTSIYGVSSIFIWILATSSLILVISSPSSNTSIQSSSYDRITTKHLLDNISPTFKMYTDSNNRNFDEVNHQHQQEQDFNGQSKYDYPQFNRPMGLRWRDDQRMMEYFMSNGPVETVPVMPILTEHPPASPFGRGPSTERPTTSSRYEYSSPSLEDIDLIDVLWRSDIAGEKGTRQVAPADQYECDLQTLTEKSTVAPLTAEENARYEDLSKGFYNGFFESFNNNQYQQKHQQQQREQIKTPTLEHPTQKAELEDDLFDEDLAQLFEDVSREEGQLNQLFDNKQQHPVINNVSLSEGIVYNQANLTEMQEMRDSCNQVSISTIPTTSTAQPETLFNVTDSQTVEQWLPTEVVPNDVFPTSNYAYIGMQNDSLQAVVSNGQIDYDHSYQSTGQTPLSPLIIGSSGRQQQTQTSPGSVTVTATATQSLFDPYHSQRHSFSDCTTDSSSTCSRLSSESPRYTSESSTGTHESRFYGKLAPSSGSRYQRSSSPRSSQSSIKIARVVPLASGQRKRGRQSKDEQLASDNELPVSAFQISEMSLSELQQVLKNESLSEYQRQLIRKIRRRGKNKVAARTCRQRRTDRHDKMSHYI

[12] = molecular target: Fructose-bisphosphate aldolase (Mycobacterium tuberculosis, UniProt P9WQA3); assay: Fluorescence-based biochemical high throughput dose response assay for inhibitors of the fructose-bisphosphate aldolase (FBA) of M. tuberculosis.; type: functional
[13] = ADAM10 inhibitors, peptide cleavage, dose response, biochemical, QFRET (AID 743254);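 also: ADAM10 enzyme with the DM2 quenched FRET peptide as substrate; EDANS fluorescence gain as the protease cuts the substrate; inhibitor potency against ADAM10 proteolytic activity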
[14] = molecular target: T4, Disintegrin and metalloproteinase domain-containing protein 17 (Homo sapiens, UniProt P78536); assay: exosite inhibitors of ADAM17, dose response, biochemical (AID 743260)
[15] = ADAM10 protease inhibitors, dose response, selectivity assay for ADAM17 exosite inhibitor project, biochemical, FRET peptide substrate, recombinant human ADAM10 (AID 743259);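 also: ADAM10 enzyme cleaving a FRET peptide substrate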
[16] = molecular target: T4, Disintegrin and metalloproteinase domain-containing protein 17; assay: ADAM17 protease inhibitors, dose response, counter-screen for ADAM10 exosite inhibitor project, biochemical, quenched FRET substrate (AID 743253)
Paired box protein Pax-8 = Paired box protein Pax-8 (Homo sapiens, UniProt Q06710); assay: inhibitors of PAX8-driven TPO luciferase reporter, dose response, RMG-I cells, cherry-pick (AID 687027); type: functional, cell-based;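 also: luciferase reporter driven by Pax8 target thyroperoxidase promoter measured by SteadyGlo luminescence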
[17] = NIH:OVCAR-3 ovarian cancer cell cytotoxicity, dose response, PAX8 inhibitor project, plate reader, dry powder samples (AID 743044); type: functional, cell-based
[18] = IGROV1 ovarian cancer cell cytotoxicity, dose response, PAX8 inhibitor project, plate reader, dry powder samples (AID 743043); type: functional, cell-based; details: IGROV-1
[19] = non-specific cell cytotoxicity, dose response, cytotoxicity control for PAX8 inhibitor project, plate reader, dry powder samples (AID 743021); type: functional, cell-based
[20] = cytotoxicity in OVCAR8 ovarian cancer cells, dose response, PAX8 project, cell-based, plate reader, dry powder samples (AID 743197); type: functional; details: OVCAR-8
[21] = Luminescence Cell-Based Dose Confirmation HTS to Identify Activators of 5'UTR Stem-Loop Driven Alpha-Synuclein mRNA Translation in H4 Neuroglioblastoma Cells. [Related pubchem assays: 1829 (Project Summary), 1814 (Primary HTS)]; type: functional
[22] = Luminescence Cell-Based Dose Response HTS to Identify Activators of Luciferase Translation or Activity in H4 […] Cells. [Related pubchem assays: 1829 (Project Summary), 1814 (Primary HTS)]; type: functional
H4 = assay: Luminescence Cell-Based Dose Response HTS to Identify Activators of 5'UTR Stem-Loop Driven Prion Protein mRNA Translation in H4 Neuroglioblastoma Cells. [Related pubchem assays: 1829 (Project Summary), 1814 (Primary HTS)]; type: functional; details: Homo sapiens
cells [23] = details: A549
cells [24] = details: HEK293
[25] = T. cruzi growth inhibition in host cells, dose response, cell-based, plate reader, dry powder, set 2 (AID 652275); type: functional

T4 sequence (P78536 whole entry, the tested form may be a part): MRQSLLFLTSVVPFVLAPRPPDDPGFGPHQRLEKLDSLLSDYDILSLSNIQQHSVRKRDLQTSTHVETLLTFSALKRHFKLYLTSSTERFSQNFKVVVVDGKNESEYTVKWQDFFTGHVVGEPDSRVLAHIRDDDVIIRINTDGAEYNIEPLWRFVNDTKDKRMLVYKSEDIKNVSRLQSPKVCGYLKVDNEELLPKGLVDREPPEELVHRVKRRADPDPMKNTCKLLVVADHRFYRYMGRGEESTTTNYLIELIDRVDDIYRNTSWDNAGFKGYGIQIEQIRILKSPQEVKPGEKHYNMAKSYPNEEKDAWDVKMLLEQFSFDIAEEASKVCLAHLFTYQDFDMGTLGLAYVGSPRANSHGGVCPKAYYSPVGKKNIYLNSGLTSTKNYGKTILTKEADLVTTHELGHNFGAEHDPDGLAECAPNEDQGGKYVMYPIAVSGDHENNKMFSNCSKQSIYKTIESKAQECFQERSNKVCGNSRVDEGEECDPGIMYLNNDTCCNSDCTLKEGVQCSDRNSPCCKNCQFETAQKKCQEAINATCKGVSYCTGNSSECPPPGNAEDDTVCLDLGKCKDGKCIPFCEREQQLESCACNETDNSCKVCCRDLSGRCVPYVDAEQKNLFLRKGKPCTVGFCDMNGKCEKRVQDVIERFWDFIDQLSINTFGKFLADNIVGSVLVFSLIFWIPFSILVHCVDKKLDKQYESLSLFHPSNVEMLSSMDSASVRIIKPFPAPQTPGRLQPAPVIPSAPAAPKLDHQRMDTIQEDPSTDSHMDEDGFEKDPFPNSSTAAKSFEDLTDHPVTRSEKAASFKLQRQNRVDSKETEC
Chain of Nuclear receptor subfamily 5 group A member 2 (O00482 whole entry): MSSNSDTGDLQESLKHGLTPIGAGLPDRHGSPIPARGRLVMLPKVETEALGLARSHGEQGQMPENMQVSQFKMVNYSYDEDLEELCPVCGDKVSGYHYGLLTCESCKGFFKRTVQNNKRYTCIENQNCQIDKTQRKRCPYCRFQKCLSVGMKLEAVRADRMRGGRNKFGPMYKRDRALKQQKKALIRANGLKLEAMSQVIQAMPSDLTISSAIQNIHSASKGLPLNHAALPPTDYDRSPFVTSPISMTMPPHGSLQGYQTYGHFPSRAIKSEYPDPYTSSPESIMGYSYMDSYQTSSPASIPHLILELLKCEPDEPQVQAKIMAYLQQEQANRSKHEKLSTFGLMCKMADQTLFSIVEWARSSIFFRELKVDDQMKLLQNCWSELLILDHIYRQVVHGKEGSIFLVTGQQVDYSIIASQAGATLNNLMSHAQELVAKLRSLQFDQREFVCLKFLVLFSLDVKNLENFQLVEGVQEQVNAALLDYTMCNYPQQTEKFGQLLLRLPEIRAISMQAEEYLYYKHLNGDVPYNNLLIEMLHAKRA
Chain of Fructose-bisphosphate aldolase (P9WQA3 whole entry): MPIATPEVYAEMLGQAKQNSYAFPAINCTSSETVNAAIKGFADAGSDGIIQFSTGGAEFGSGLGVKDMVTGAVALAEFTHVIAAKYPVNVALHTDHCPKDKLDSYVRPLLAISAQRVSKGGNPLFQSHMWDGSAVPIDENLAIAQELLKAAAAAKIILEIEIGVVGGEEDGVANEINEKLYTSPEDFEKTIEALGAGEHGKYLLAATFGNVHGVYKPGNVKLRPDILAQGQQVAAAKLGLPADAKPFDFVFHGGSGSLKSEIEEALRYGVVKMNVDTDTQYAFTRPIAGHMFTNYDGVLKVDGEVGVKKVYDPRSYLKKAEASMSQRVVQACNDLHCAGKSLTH
Chain of Steroidogenic factor 1 (Q13285 whole entry): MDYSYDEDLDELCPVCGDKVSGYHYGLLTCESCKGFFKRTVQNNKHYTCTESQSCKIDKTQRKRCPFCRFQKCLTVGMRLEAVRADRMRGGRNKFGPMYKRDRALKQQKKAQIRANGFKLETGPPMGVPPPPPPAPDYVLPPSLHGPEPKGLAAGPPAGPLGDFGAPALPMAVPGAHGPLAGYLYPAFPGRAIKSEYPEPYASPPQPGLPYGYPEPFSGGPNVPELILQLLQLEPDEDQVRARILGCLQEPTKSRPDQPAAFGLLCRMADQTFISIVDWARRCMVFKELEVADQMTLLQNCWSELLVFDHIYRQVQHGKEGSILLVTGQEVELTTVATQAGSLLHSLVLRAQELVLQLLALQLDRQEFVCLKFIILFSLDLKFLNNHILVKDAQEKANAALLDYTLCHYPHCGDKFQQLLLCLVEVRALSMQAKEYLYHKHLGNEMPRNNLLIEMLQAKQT
Chain of Paired box protein Pax-8 (Q06710 whole entry): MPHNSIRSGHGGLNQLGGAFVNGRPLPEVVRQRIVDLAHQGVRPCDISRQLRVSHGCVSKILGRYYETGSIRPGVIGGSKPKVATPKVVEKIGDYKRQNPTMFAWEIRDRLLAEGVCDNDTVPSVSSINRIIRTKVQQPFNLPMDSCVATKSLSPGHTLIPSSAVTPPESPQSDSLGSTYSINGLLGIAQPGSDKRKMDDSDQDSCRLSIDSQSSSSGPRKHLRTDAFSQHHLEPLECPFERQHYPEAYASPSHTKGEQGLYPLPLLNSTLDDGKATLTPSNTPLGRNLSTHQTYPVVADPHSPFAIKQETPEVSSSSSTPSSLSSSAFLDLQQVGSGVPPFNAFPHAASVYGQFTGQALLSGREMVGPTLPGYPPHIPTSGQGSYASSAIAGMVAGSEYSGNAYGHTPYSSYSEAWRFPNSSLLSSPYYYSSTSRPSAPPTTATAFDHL
Chain of Mitogen-activated protein kinase 10 (P53779 whole entry): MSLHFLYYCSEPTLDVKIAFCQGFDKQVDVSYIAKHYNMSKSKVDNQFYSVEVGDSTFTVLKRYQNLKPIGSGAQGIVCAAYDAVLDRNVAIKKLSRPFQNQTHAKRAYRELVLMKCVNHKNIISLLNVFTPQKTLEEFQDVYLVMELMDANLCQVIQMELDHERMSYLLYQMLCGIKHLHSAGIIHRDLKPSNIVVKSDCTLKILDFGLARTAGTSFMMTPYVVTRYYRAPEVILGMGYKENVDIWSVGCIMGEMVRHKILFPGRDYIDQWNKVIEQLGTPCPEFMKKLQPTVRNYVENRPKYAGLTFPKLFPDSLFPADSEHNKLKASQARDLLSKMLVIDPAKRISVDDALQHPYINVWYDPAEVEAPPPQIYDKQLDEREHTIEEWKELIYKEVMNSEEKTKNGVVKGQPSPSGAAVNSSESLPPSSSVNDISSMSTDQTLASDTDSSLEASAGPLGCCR
Chain of fMet-Leu-Phe receptor (P21462 whole entry): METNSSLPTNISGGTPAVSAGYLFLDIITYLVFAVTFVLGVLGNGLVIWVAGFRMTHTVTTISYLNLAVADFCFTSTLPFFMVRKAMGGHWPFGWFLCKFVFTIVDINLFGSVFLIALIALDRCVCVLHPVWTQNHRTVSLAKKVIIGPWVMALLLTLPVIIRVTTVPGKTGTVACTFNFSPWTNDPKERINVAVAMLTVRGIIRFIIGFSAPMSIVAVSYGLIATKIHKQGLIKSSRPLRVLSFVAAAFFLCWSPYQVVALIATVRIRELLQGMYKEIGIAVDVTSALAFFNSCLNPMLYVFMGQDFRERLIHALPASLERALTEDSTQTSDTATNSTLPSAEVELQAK

Structure (SMILES): COc1cccc(CN2C(=O)C(C)N(C(=O)c3ccccc3)c3ccccc32)c1 (stereo unspecified)
- IC50 [1]: 26.9 µM (active)
- EC50 [2]: > 53 µM (inactive)
- IC50 [3]: 9.26 µM (active)

Structure (SMILES): COc1ccc(C(=O)C2=C(O)C(=O)N(CCN3CCOCC3)C2c2ccc(C)cc2)cc1 (stereo unspecified)
- Ki (fMet-Leu-Phe receptor): > 66.7 µM (inactive)

Structure (SMILES): Cn1cccc1CC(=O)NN=C(S)Nc1ccccc1Cl
- IC50 [4]: > 122 µM (inactive)

Structure (SMILES): O=C(COc1ccc2c3c(c(=O)oc2c1)CCC3)NCc1ccncc1
- IC50 [5]: 35.9 µM (inactive)
- IC50 (Steroidogenic factor 1): 35.9 µM (inactive)
- IC50 [6]: 35.9 µM (inactive)

Structure (SMILES): CC(=O)c1ccc(NC(=O)Nc2ccccc2)cc1
- IC50 (cells [7]): 29.8 µM (inactive)
- EC50 [8]: 3.14 µM (active)
- IC50 [9]: > 3.32 µM (active)
- EC50 (cells [10]): > 29.9 µM (inactive)

Structure (SMILES): O=C(Nc1ccc(-c2nc3cccnc3s2)cc1)c1ccco1
- IC50 [11]: > 93.1 µM (not active)
- IC50 (Protein skinhead-1): 83.1 µM (inactive)
- IC50 [12]: 1.32 µM (active)

Structure (SMILES): OCc1ccc2c(c1)c(-c1ccc3c(c1)OCCO3)c(-c1ccccc1)n2-c1ccccc1
- IC50 [12]: 0.913 µM (active)

Structure (SMILES): Cc1cc(Br)ccc1NC(=O)CN1C(=O)C2CC=CCC2C1=O (stereo unspecified)
- IC50 [5]: 0.169 µM (active)
- IC50 (Steroidogenic factor 1): 0.105 µM (active)
- IC50 [6]: 35.9 µM (inactive)

Structure (SMILES): O=C(CSc1ccc(Cl)cc1Cl)N1CCC(c2nc3ccccc3s2)CC1
- IC50 [13]: 22.1 µM (inactive)
- IC50 [14]: > 69.5 µM (inactive)
- IC50 [15]: 18.8 µM (inactive)
- IC50 [16]: > 69.5 µM (inactive)

Structure (SMILES): O=S(=O)(Nc1cc(Cl)ccc1-n1cncn1)c1ccccc1Cl
- IC50 [1]: 32.6 µM (active)
- EC50 [2]: > 53 µM (inactive)
- IC50 [3]: > 20 µM (inactive)

Structure (SMILES): C=CCC[C@@H](Cc1ccc(F)cc1)C(=O)OC[C@@H](NC(=O)[C@H](CC=C)CC(=O)N(CCO)Cc1ccccc1)c1ccccc1
- IC50 [13]: 27.4 µM (inactive)
- IC50 [16]: > 69.5 µM (inactive)

Structure (SMILES): Cc1cc(O)nc(Nc2cccc(F)c2)n1
- IC50 (cells [7]): > 29.9 µM (inactive)
- EC50 [8]: 8.54 µM (active)
- IC50 [9]: > 29.9 µM (inactive)
- EC50 (cells [10]): > 29.9 µM (inactive)

Structure (SMILES): C[C@H](CO)N1C[C@H](C)[C@H](CN(C)Cc2ccc(C(F)(F)F)cc2)OCCCC[C@H](C)Oc2ccc(NS(=O)(=O)c3ccccc3)cc2C1=O
- AC50 (Paired box protein Pax-8): 9.01 µM (active)
- AC50 [17]: 45 µM (active)
- AC50 [18]: 55.8 µM (active)
- AC50 [19]: 55.7 µM (active)
- AC50 [20]: 48.9 µM (active)

Structure (SMILES): C[C@@H]1CN([C@@H](C)CO)C(=O)Cc2cc(NC(=O)Nc3ccc4c(c3)OCO4)ccc2O[C@H]1CN(C)CC1CCCCC1
- AC50 (Paired box protein Pax-8): 9.15 µM (active)
- AC50 [17]: 37 µM (active)
- AC50 [18]: 58.1 µM (active)

Structure (SMILES): COC(=O)c1cc(=O)n(Cc2ccc3c(c2)OCO3)/c(=N/c2ccc(F)c(Cl)c2)s1
- EC50 [21]: 10.4 µM (active)
- EC50 [22]: > 120 µM (not active)
- EC50 (H4): > 120 µM (not active)
- AC50 (cells [23]): 23.3 µM (active)
- AC50 (cells [24]): 20 µM (active)

Structure (SMILES): CN(C)C(=O)c1ccc(-c2ccc([C@H]3[C@H](CO)N4CCCCN(Cc5cncnc5)C[C@@H]34)cc2)cc1
- AC50 [25]: 472 nM (active)
